Key:
Set-up in all cases: scale not given: the % may be the effect or the level left
[1] = target: Serine/threonine-protein kinase PLK1 (Homo sapiens) (UniProt P53350); assay: Inhibition of human PLK1 assessed as enzyme activity at 1 uM using casein as substrate preincubated for 20 mins followed by [gamma-33P]-ATP addition and measured after 120 mins by radiometric Hot-SpotSM Kinase assay relative to control
[2] = target: T1, Interleukin-1 receptor-associated kinase 4 (Homo sapiens) (UniProt Q9NWZ3); assay: Inhibition of human IRAK4 assessed as enzyme activity at 1 uM using myelin basic protein as substrate preincubated for 20 mins followed by [gamma-33P]-ATP addition and measured after 120 mins by radiometric Hot-SpotSM Kinase assay relative to control
T1 sequence (whole entry): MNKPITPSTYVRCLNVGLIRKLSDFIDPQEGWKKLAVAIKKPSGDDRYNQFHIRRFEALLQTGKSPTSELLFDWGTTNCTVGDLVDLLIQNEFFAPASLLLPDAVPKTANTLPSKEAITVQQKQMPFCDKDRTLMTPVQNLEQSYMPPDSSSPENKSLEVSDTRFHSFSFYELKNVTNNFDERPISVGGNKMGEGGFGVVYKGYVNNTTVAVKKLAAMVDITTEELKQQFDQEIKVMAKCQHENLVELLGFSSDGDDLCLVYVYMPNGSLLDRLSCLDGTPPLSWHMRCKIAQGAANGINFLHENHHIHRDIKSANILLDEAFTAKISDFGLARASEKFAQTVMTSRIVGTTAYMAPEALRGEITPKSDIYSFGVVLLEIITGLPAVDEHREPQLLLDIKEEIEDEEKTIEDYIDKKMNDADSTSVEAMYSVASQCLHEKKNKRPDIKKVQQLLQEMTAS

[3] = target: Homeodomain-interacting protein kinase 3 (Homo sapiens) (UniProt Q9H422); assay: Inhibition of human HIPK3 assessed as enzyme activity at 1 uM using myelin basic protein as substrate preincubated for 20 mins followed by [gamma-33P]-ATP addition and measured after 120 mins by radiometric Hot-SpotSM Kinase assay relative to control
[4] = target: Serine/threonine-protein kinase PLK3 (Homo sapiens) (UniProt Q9H4B4); assay: Inhibition of human PLK3 assessed as enzyme activity at 1 uM using casein as substrate preincubated for 20 mins followed by [gamma-33P]-ATP addition and measured after 120 mins by radiometric Hot-SpotSM Kinase assay relative to control
[5] = target: Insulin receptor (Homo sapiens) (UniProt P06213); assay: Inhibition of human IR assessed as enzyme activity at 1 uM using poly[Glu:Tyr] (4:1) as substrate preincubated for 20 mins followed by [gamma-33P]-ATP addition and measured after 120 mins by radiometric Hot-SpotSM Kinase assay relative to control
[6] = target: Serine/threonine-protein kinase MARK2 (Homo sapiens) (UniProt Q7KZI7); assay: Inhibition of human PAR-1Ba assessed as enzyme activity at 1 uM using KKKVSRSGLYRSPSMPENLNRPR as substrate preincubated for 20 mins followed by [gamma-33P]-ATP addition and measured after 120 mins by radiometric Hot-SpotSM Kinase assay relative to control
[7] = target: T2, Calcium/calmodulin-dependent protein kinase type IV (Homo sapiens) (UniProt Q16566); assay: Inhibition of human CAMK4 assessed as enzyme activity at 1 uM using KKLNRTLSFAEPG as substrate preincubated for 20 mins followed by [gamma-33P]-ATP addition and measured after 120 mins by radiometric Hot-SpotSM Kinase assay relative to control
T2 sequence (whole entry): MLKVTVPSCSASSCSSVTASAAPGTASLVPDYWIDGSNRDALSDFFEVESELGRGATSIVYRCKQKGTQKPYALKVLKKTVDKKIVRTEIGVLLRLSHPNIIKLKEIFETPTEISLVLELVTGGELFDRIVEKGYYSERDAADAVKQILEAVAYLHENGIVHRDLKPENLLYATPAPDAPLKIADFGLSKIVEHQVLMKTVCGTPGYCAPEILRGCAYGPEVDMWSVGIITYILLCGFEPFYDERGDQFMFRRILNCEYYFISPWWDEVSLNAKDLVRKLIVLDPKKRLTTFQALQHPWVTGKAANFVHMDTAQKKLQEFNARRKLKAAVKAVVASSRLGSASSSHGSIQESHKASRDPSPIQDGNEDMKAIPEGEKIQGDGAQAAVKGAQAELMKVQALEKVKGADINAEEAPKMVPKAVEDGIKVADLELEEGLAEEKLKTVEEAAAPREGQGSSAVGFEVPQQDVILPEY

[8] = target: Ribosomal protein S6 kinase alpha-2 (Homo sapiens) (UniProt Q15349); assay: Inhibition of human RSK3 assessed as enzyme activity at 1 uM using KKLNRTLSVA as substrate preincubated for 20 mins followed by [gamma-33P]-ATP addition and measured after 120 mins by radiometric Hot-SpotSM Kinase assay relative to control
[9] = target: TRAF2 and NCK-interacting protein kinase (Homo sapiens) (UniProt Q9UKE5); assay: Inhibition of human TNIK assessed as enzyme activity at 1 uM using RLGRDKYKTLRQIRQ as substrate preincubated for 20 mins followed by [gamma-33P]-ATP addition and measured after 120 mins by radiometric Hot-SpotSM Kinase assay relative to control
[10] = target: T3, Dual specificity tyrosine-phosphorylation-regulated kinase 2 (Homo sapiens) (UniProt Q92630); assay: Inhibition of human DYRK2 assessed as enzyme activity at 1 uM using RRRFRPASPLRGPPK as substrate preincubated for 20 mins followed by [gamma-33P]-ATP addition and measured after 120 mins by radiometric Hot-SpotSM Kinase assay relative to control
T3 sequence (whole entry): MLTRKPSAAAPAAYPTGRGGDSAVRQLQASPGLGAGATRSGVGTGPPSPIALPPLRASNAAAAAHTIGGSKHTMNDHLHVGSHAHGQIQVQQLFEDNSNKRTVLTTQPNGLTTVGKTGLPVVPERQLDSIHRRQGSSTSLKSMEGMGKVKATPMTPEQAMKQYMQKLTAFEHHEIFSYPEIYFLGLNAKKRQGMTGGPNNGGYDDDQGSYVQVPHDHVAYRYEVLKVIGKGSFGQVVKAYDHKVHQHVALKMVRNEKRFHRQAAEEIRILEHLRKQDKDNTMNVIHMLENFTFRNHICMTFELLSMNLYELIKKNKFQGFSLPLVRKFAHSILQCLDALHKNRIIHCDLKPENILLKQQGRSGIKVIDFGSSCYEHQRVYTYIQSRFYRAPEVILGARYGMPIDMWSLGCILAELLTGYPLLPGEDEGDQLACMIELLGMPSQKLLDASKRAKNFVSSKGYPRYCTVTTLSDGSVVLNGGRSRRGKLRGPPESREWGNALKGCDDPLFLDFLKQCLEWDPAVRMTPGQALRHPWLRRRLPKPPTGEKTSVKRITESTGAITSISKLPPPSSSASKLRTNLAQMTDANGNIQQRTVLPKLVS

Chain of Ribosomal protein S6 kinase alpha-2 (Homo sapiens) (Q15349 whole entry): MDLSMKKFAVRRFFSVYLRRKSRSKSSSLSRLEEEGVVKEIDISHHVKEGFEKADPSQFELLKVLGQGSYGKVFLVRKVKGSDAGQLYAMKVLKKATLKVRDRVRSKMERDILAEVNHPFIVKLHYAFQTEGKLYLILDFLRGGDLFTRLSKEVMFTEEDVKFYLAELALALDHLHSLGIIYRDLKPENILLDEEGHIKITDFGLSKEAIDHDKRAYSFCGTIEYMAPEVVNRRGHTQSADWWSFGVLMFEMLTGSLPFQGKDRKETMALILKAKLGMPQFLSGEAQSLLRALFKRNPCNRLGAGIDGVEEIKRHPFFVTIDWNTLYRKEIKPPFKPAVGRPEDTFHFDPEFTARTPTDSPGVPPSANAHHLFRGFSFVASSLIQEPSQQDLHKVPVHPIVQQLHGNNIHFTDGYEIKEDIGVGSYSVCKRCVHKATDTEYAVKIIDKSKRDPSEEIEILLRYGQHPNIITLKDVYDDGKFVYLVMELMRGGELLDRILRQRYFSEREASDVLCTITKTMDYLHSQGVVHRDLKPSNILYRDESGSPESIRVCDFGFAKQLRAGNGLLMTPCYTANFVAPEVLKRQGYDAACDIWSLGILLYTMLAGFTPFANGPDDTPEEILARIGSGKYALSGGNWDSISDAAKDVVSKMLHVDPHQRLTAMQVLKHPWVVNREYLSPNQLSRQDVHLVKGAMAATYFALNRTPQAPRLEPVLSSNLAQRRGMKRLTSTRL
Chain of Serine/threonine-protein kinase PLK1 (Homo sapiens) (P53350 whole entry): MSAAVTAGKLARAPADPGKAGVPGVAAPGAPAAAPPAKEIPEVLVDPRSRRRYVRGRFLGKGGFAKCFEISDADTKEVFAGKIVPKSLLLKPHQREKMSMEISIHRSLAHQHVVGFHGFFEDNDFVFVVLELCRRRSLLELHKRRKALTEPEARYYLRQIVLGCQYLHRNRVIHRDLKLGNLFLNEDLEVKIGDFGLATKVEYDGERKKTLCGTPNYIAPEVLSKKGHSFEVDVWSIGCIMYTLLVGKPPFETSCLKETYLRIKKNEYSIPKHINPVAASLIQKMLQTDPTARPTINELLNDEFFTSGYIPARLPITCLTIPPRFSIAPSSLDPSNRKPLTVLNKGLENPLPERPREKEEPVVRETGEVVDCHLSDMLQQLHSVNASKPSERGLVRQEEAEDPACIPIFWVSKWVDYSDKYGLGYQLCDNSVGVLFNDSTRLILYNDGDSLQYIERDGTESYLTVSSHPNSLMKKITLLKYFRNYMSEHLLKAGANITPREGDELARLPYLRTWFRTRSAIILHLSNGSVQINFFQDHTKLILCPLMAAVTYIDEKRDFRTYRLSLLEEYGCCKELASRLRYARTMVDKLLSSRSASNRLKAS
Chain of Homeodomain-interacting protein kinase 3 (Homo sapiens) (Q9H422 whole entry, looked up): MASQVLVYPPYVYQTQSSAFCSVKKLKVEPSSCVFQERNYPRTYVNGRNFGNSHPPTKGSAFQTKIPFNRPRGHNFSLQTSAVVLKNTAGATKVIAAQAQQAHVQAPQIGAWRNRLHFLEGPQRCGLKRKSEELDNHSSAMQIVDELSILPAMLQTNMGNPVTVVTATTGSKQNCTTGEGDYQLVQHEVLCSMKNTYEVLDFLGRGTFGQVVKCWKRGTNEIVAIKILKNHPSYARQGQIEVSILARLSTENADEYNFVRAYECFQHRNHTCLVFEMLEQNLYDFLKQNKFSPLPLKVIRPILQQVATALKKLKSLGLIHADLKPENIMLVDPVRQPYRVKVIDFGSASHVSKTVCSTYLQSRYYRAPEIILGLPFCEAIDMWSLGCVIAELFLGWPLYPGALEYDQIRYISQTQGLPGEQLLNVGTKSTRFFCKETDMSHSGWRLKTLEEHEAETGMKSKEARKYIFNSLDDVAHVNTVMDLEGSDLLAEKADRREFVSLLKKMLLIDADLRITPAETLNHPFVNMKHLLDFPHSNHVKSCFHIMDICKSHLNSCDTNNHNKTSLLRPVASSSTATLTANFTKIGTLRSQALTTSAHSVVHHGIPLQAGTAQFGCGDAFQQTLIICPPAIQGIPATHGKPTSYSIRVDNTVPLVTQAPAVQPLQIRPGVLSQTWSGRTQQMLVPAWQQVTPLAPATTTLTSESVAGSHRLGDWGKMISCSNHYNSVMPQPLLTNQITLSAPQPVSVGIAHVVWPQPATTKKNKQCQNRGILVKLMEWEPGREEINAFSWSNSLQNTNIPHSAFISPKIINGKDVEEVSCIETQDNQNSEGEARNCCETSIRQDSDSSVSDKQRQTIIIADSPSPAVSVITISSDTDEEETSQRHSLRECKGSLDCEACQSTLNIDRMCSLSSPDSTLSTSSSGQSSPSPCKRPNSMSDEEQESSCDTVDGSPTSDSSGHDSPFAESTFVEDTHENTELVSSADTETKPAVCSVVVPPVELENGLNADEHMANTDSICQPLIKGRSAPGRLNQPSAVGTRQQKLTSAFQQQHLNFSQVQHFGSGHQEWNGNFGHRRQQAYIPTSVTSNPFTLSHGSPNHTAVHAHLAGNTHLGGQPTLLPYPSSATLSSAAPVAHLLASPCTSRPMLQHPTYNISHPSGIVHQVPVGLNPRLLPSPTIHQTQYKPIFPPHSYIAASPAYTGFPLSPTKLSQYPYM
Chain of Serine/threonine-protein kinase MARK2 (Homo sapiens) (Q7KZI7 whole entry): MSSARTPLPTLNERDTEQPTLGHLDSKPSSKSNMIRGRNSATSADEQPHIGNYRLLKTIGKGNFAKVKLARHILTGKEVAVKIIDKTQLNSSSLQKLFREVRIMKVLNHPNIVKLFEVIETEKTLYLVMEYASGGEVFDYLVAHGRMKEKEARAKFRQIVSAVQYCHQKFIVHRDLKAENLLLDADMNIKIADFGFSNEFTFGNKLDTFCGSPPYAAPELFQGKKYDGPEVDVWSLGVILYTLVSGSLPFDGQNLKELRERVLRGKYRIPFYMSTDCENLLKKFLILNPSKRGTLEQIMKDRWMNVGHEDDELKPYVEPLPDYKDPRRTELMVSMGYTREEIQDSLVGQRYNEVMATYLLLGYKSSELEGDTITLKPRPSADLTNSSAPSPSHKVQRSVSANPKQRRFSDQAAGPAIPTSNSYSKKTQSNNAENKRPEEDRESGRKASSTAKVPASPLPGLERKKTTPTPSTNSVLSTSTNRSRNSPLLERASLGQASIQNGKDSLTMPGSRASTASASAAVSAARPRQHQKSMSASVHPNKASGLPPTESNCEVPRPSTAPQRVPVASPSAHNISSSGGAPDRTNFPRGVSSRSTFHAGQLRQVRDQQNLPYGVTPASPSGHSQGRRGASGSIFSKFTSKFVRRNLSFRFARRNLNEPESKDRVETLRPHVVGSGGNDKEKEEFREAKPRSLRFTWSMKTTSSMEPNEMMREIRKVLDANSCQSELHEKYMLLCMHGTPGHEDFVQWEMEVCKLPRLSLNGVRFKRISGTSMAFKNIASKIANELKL
Chain of TRAF2 and NCK-interacting protein kinase (Homo sapiens) (Q9UKE5 whole entry, looked up): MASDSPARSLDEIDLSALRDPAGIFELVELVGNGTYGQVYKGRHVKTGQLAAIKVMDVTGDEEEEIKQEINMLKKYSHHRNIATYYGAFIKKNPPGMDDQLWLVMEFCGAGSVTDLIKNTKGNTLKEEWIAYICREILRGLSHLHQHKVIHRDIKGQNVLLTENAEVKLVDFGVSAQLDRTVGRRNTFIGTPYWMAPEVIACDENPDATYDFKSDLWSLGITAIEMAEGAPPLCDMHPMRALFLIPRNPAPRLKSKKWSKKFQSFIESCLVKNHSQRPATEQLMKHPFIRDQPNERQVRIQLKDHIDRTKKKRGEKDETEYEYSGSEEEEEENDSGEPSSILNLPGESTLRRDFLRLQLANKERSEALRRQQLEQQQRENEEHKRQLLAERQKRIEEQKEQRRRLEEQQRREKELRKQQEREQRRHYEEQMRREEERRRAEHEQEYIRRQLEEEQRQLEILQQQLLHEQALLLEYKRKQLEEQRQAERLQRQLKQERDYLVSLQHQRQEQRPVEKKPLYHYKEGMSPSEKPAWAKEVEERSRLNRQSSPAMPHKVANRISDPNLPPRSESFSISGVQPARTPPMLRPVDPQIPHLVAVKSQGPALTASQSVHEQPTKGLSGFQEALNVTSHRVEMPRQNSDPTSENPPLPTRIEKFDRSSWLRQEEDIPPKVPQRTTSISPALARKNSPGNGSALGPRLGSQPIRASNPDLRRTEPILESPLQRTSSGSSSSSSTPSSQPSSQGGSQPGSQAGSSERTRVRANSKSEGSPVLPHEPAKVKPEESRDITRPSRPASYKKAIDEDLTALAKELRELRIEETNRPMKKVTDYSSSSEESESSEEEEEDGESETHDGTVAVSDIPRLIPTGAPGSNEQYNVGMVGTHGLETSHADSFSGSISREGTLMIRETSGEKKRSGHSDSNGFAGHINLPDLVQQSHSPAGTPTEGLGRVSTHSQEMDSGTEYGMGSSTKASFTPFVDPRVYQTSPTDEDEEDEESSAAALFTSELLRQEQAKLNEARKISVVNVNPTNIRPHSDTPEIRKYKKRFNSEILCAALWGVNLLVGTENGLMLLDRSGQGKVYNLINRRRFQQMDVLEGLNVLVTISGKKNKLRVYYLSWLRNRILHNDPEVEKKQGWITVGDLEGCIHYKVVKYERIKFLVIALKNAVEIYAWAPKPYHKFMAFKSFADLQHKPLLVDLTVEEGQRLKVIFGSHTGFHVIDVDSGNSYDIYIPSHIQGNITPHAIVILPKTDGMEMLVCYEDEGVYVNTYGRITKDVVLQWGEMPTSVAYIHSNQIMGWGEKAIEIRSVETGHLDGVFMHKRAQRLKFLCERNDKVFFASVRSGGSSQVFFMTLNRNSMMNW

Row | Compound | Activity [1] | Activity [2] | Activity [3] | Activity [4] | Activity [5] | Activity [6] | Activity [7] | Activity [8] | Activity [9] | Activity [10]
1 | CC[C@H](Nc1ncnc2[nH]cnc12)c1nc2cccc(F)c2c(=O)n1-c1ccccc1 | 95.4% | 96.3% | 108% | 98.4% | 99.5% | 94.3% | 82.5% | 98.3% | 94.5% | 99%
2 | C[C@H](Nc1ncnc2nc[nH]c12)c1cc2cccc(Cl)c2c(=O)n1-c1ccccc1 | 94% | 91% | 105% | 95.1% | 98.2% | 95.8% | 80.7% | 94.1% | 99.7% | 99%
3 | CC(C)Oc1ccc(-c2nn([C@@H](C)c3oc4ccc(F)cc4c(=O)c3-c3cccc(F)c3)c3ncnc(N)c23)cc1F [UMBRALISIB] | 98.4% | 101% | 103% | 96.7% | 99.5% | 99.7% | 75.4% | 101% | 97.7% | 99.2%

Reference: ChEMBL document CHEMBL5715954, “Silencing c-Myc translation as a therapeutic strategy through targeting PI3Kδ and CK1ε in hematological malignancies” (Blood, 2017)
